# According to patent US8623924B2, “Compositions and methods for modulating metabolic pathways” (Nusirt Sciences, Inc., priority 2011, dated 2014):
# Entries after “also recorded” stand apart in the source; their conditions may differ.
# Legend:
# [1] = tested on: adipocytes (3T3-L1) and myotubes (C2C12); experiment: Fatty acid oxidation screening and dose-response, cell type both or not stated; format: cell-based; conditions: for concentrations that exert no effect (dose-response curves; sub-therapeutic dose): highest dose that exerted no effect on fatty acid oxidation; for synergy with HMB or leucine in stimulating fatty acid oxidation: compound at its no-effect concentration with HMB 5 μM or leucine 0.5 mM; for independent activity in stimulating fatty acid oxidation (dose-response): compound alone
# [2] = Insulin tolerance test in db/db mice; format: in vivo
# [3] = Plasma insulin, glucose and HOMAIR in db/db mice; format: in vivo
# [4] = db/db mice
# [5] = tested on: c2c12 myotubes; experiment: Glucose utilization (extracellular acidification) in C2C12 myotubes; format: cell-based; conditions: HMB 5 μM, leucine 0.5 mM, resveratrol 200 nM, other components at their no-effect concentration
# Description: All compounds were tested for potential to independently or synergistically modulate sirtuin signaling either by direct stimulation or indirect via upstream signaling via AMPK. A key outcome of Sirt1 signaling is stimulation of PGC1-α and subsequent stimulation of mitochondrial biogenesis and fatty acid oxidation. Accordingly, fatty acid oxidation, measured as palmitate-induced oxygen consumption as described below, was utilized as a sensitive first level of screening for aerobic mitochondrial metabolism. A dose-response curve for fatty acid oxidation was established for each compound studied, and a “sub-therapeutic dose” was defined as the highest dose that exerted no effect in this system. […] Following assessment of fatty acid oxidation, Sirt1 activity, AMPK activity, mitochondrial biogenesis and glucose utilization (measured as glucose-induced extracellular acidification in the absence of fatty acids in the media) were assessed for lead combinations and appropriate controls. Glucose Utilization: In the absence of a fatty acid source and oxidative metabolism, glycolysis and subsequent lactate production results in extracellular acidification, which was also measured using a Seahorse Bioscience XF24 analyzer. […] Data for each sample were normalized to the pre-glucose injection baseline for that sample and expressed as % change from that baseline. […]
# [6] = biological target: T1, SIRT1 (Homo sapiens, UniProt Q96EB6); experiment: SIRT1 activity, cell-free fluorimetric deacetylation assay; format: biochemical; conditions: cell-free system
# T1 construct: purchased ENZO Life Sciences International, Inc. BML-AK555
# T1 sequence (Q96EB6 1-747): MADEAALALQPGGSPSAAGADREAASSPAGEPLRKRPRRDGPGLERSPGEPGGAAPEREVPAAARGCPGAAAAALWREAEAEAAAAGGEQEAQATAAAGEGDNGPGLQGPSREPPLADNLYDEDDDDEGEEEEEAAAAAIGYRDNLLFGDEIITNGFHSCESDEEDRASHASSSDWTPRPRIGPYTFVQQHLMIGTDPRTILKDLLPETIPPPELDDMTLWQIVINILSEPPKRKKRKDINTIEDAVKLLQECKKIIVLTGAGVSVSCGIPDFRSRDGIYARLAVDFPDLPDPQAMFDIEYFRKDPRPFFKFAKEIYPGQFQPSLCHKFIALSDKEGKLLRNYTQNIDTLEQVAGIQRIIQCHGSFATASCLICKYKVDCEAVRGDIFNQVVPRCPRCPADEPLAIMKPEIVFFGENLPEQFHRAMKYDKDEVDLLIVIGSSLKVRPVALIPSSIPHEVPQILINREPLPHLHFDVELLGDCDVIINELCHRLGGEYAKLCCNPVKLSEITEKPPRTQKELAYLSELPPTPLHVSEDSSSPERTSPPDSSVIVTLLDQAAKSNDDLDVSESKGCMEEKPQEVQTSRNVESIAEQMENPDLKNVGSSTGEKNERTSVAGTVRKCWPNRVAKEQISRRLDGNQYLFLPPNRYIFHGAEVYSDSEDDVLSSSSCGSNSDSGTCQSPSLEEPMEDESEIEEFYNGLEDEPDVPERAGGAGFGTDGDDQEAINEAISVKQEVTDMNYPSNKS
# Description: SIRT1 activity was measured by using the SIRT1 Fluorimetric Drug Discovery Kit (BML-AK555, ENZO Life Sciences International, Inc. PA, USA). In this assay, SIRT1 activity is assessed by the degree of deacetylation of a standardized substrate containing an acetylated lysine side chain. The substrate utilized is a peptide containing amino acids 379-382 of human p53 (Arg-His-Lys-Lys[Ac]), an established target of SIRT1 activity; SIRT1 activity is directly proportional to the degree of deacetylation of Lys-382. Samples were incubated with peptide substrate (25 μM), and NAD^+ (500 μM) in a phosphate-buffered saline solution at 37° C. on a horizontal shaker for 45 minutes. The reaction was stopped with the addition of 2 mM nicotinamide and a developing solution that binds to the deacetylated lysine to form a fluorophore. Following 10 minutes incubation at 37° C., fluorescence was read in a plate-reading fluorometer at an excitation wavelength of 360 nm and an emission wavelength of 450 nm. […] A standard curve was constructed using deacetylated substrate (0-10 μM).
# [7] = tested on: Adipocytes (3T3-L1); experiment: Fatty acid oxidation (3H-palmitate) in 3T3-L1 adipocytes; format: cell-based; conditions: high (25 mM) glucose, 4 hours; leucine 0.5 mM, HMB 5 uM, resveratrol 200 nM; vs. control
# Description: High glucose medium reduced fatty acid oxidation by 46% (p<0.05).
# Fatty acid oxidation was measured using ^3H-labeled palmitate oxidation, with the ^3H label trapped as water as a result of the fat oxidation. The ^3H was then measured via scintillation counter.
# [8] = tested on: c2c12 myotubes; experiment: Fatty acid oxidation (FAO) in c2c12 myotubes, Example 1; format: cell-based; conditions: preserved in presence and absence of 20 nM rapamycin
# Description: We have shown that catabolic systems are also stimulated to fuel this process, resulting in increased mitochondrial biogenesis and fatty acid oxidation (FAO). To address the mechanism of this effect, we first determined its mTOR-dependence by assessing leucine stimulation of FAO in the presence and absence of 20 nM rapamycin; although rapamycin inhibited FAO in c2c12 myotubes, the degree of leucine stimulation was preserved (˜50%, p<0.03; FIG. 1).
# (§1) We next investigated the role of intact leucine (0-0.5 mM) vs. its metabolites, α-ketoisocaproic acid (KIC) (0-0.5 mM) and HMB (0-50 μM). […] Both leucine and HMB increased myotube mitochondrial biogenesis (assessed fluorometrically via NAO binding) by ˜50%, (p<0.005, FIG. 3).
# [9] = tested on: myotube mitochondrial biogenesis; experiment: Myotube mitochondrial biogenesis (NAO binding), Example 1; format: cell-based; conditions: assessed fluorometrically via NAO binding
# Description: as §1
# [10] = tested on: PGC-1α, NRF-1 and UCP3 genes; experiment: Expression of mitochondrial regulatory and component genes; format: cell-based
# [11] = biological target: T2, Sirt3 (Mus musculus, UniProt Q8R104); experiment: Sirt3 activity in mitochondrial protein of treated 3T3-L1 adipocytes; format: cell-based; conditions: 4 hours, leucine 0.5 mM, HMB 5 uM, resveratrol 200 nM
# T2 construct: endogenous in cells; host or cells: 3T3-L1 adipocytes (mitochondrial protein)
# T2 sequence (Q8R104 1-334): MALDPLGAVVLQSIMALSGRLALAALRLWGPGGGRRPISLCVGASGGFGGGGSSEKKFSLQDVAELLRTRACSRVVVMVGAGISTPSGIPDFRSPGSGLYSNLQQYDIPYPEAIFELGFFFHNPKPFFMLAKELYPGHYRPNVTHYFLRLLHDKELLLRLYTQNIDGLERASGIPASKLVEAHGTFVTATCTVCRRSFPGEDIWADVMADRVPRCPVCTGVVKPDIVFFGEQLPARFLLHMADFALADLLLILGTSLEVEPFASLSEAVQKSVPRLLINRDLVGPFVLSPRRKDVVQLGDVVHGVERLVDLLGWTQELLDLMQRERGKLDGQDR
# [12] = in vivo; cited from earlier work
# [13] = high dose metformin 300 mg/kg bw
molecule,measurement,setting,value
"Cn1c(=O)c2[nH]cnc2n(C)c1=O [Theophylline, reference compound]",concentrations that exert no effect (dose-response curves; sub-therapeutic dose),[1],below 1 μM
CN(C)C(=N)N=C(N)N [Metformin],decrease in blood glucose over the 30 minute linear portion of the insulin response curve,"[2]; insulin 0.75 U/kg, standard metformin dose, or low / very low metformin blends",~60 mg/dL
same,changes in blood glucose in response to the insulin challenge,[2]; low-dose or very low-dose of metformin alone,minimal changes
same,reduction of plasma insulin,"[3]; 2 weeks, high dose metformin 300 mg/kg bw (1.5 g/kg diet)",27%
same,plasma insulin,"[3]; 2 weeks, high dose metformin 300 mg/kg bw, control 62",45 uU/mL
same,effect on plasma glucose,[3]; [13],no significant effect
same,independent effects on any variable studied,[3]; low dose of metformin (150 mg/kg) and very low dose (50 mg/kg),no significant independent effects
same,effects on body composition,[4]; [13],no significant effects
same,effect on visceral fat mass,[4]; metformin at any dosage in the absence of HMB,not affected
"O[C@H]1[C@H](O)[C@@H](O)[C@H](O)[C@@H](O)[C@H]1O [Myo-inositol, reference compound]",synergy with HMB or leucine in stimulating fatty acid oxidation,[1],no synergy
"O=C(O[C@@H]1Cc2c(O)cc(O)cc2O[C@@H]1c1cc(O)c(O)c(O)c1)c1cc(O)c(O)c(O)c1 [EGCG, epigallocatechin gallate]",independent activity in stimulating fatty acid oxidation (dose-response),[1],minimally active
same,synergy with HMB or leucine in stimulating fatty acid oxidation,[1],do not detect synergistic effects
same,increase in glucose utilization in myotubes (extracellular acidification response to glucose),[5],no independent effect
"OC[C@@H](O)[C@@H](O[C@H]1O[C@H](CO)[C@@H](O)[C@H](O)[C@H]1O)[C@H](O)[C@@H](O)CO [Maltitol, reference compound]",synergy with HMB or leucine in stimulating fatty acid oxidation,[1],no synergy was noted
same,concentrations that exert no effect (dose-response curves; sub-therapeutic dose),[1],≤ 100 nM
"CC(C)[C@H](N)C(=O)O [valine, reference compound]",SIRT1 activity,[6],no significant effect
O=c1oc2c(O)c(O)cc3c(=O)oc4c(O)c(O)cc1c4c23 [Ellagic acid],independent activity in stimulating fatty acid oxidation (dose-response),[1],"little activity, even at high concentrations (50 μM)"
CC(C)C[C@H](N)C(=O)O [leucine],"increase in fatty acid oxidation, high glucose",[7],27%
same,SIRT1 activity,[6],significantly increased SIRT1 activity
same,leucine stimulation of FAO,[8],~50%
same,increase in myotube mitochondrial biogenesis,[9],~50%
same,expression of mitochondrial regulatory (PGC-1α and NRF-1) and component (UCP3) genes,[10],stimulated expression
same,increase in Sirt3 activity,[11],no significant independent effect; also recorded: no independent effects
Fucoxanthin,concentrations that exert no effect (dose-response curves; sub-therapeutic dose),[1],≤ 100 nM
O=C(O)/C=C/c1ccc(O)c(O)c1 [Caffeic acid],concentrations that exert no effect (dose-response curves; sub-therapeutic dose),[1],≤ 1000 nM
Cn1c(=O)c2c(ncn2C)n(C)c1=O [Caffeine],plasma concentration observed following caffeine consumption,[12],1000 to 10000 nM
"CC(C)CC(=O)C(=O)O [KIC, α-ketoisocaproic acid]",SIRT1 activity,[6],significantly increased SIRT1 activity
"OC[C@@H](O)[C@@H](O)[C@H](O)[C@@H](O)CO [Sorbitol, reference compound]",synergy with HMB or leucine in stimulating fatty acid oxidation,[1],no synergy
